Laboratory results taken from US11559528B2, “BACE1 inhibition for the treatment of cancer” (The Cleveland Clinic Foundation, priority 2019, dated 2023).

Legend:
[1] = tested on: iPSC-derived M2 macrophages; test: Fluorescent phagocytosis screening assay, iPSC-derived M2 macrophages against glioma cells; format: cell-based, human; conditions: for screen of drug libraries and known inhibitors for promoters of macrophage phagocytosis: hit: glioma cells and lung ADC cells
[2] = patients, Phase I to Phase III; cited from earlier work
[3] = tested on: H1002 and H146 lung cancer cells; test: Cell titer viability assay on lung cancer cells; format: cell-based, human; conditions: indicated concentrations, 72 hours, n=3
Description: (A) Effects of BACE1 inhibitors on lung cancer cell proliferation. H1002 and H146 lung cancer cells were treated with the indicated concentrations of the BACE1 inhibitor AZD3293, MK-8931, AZD3839, or PF-06751979 (PF) for 72 hours. Cell viability was assessed by cell titer assay (n=3). (B-D) A preclinical trial of MK-8931 for lung cancer treatment in xenograft models. H1002 lung cancer cells (5×106) were transplanted into mouse right flank through subcutaneous injection to establish subcutaneous lung cancer xenografts. […] Tumors dissected from mice of each group were photographed (C) and weighed (D). […] Data are shown as mean SEM. p **<0.01, Student's t-test.

Q: Which results are given for `CC#Cc1cncc(-c2ccc3c(c2)[C@@]2(N=C(C)C(N)=N2)[C@]2(CC[C@@H](OC)CC2)C3)c1` [AZD3293]?
A: macrophage phagocytosis against cancer cells [1]: promotes macrophage phagocytosis against cancer cells; screen of drug libraries and known inhibitors for promoters of macrophage phagocytosis: hit [1]: hits; tolerability / safety in AD clinical trials [2]: very safe for patients; lung cancer cell proliferation (cell viability) [3]: suppressed lung cancer cell proliferation

Q: Which “screen of drug libraries and known inhibitors for promoters of macrophage phagocytosis: hit” value [1] does the source give for `NC1=N[C@@](c2cccc(-c3cncnc3)c2)(c2ccnc(C(F)F)c2)c2cccc(F)c21` [AZD3839] here?
A: hits

Q: What about the “lung cancer cell proliferation (cell viability)” value [3] of the same molecule?
A: suppressed lung cancer cell proliferation

Q: With `Cn1cnc2c(F)c(Nc3ccc(Br)cc3Cl)c(C(=O)NOCCO)cc21` [AZD6244] as the molecule, how does the “screen of drug libraries and known inhibitors for promoters of macrophage phagocytosis: hit” value [1] read?
A: hits

Q: For `C[C@@]1(c2nc(NC(=O)c3ncc(C(F)(F)F)cc3Cl)ccc2F)CO[C@@](C)(C(F)(F)F)C(N)=N1` [CNP520], which “macrophage phagocytosis against cancer cells” value [1] is on record?
A: promotes macrophage phagocytosis against cancer cells

Q: And the “screen of drug libraries and known inhibitors for promoters of macrophage phagocytosis: hit” value [1]?
A: hits

Q: And the “tolerability / safety in AD clinical trials” value [2]?
A: very safe for patients

Q: Which “macrophage phagocytosis against cancer cells” value [1] does the source give for `NC1=N[C@@]2(c3cc(NC(=O)c4cnc(C(F)F)cn4)ccc3F)CO[C@H](C(F)(F)F)[C@H]2CS1` [E2609] here?
A: promotes macrophage phagocytosis against cancer cells

Q: What about the “screen of drug libraries and known inhibitors for promoters of macrophage phagocytosis: hit” value [1] of the same molecule?
A: hits

Q: With `C[C@@]1(c2cc(NC(=O)c3ccc(C#N)cn3)ccc2F)C=CSC(N)=N1` [JNJ-54861911] as the molecule, how does the “screen of drug libraries and known inhibitors for promoters of macrophage phagocytosis: hit” value [1] read?
A: hits

Q: Which “screen of drug libraries and known inhibitors for promoters of macrophage phagocytosis: hit” value [1] does the source give for `CS[C@@]1(C(=O)Nc2ccc3[nH]nc(-c4ccc(OC(C)C)nc4)c3c2)CCN(CC(=O)N2CC=C(c3ccc(-c4ncn(C)n4)cc3)CC2)C1` [MK-8353] here?
A: hits

Q: Which results are given for `C[C@H]1C[C@H]2CSC(N)=N[C@@]2(c2nc(NC(=O)c3ccc(OC(F)F)cn3)cs2)CO1` [PF-06751979]?
A: screen of drug libraries and known inhibitors for promoters of macrophage phagocytosis: hit [1]: hits; lung cancer cell proliferation (cell viability) [3]: suppressed lung cancer cell proliferation
